Source: ChEMBL document CHEMBL3046708, “The effect of pyridazine compounds on the cardiovascular system” (Med Chem Res, 2012)

Columns and labels:
Sus scrofa [1] = experiment: Cardiotoxicity in Sus scrofa (pig) assessed as increase in maximum rate of rise of left ventricular pressure at 0.05 to 0.5 ug/kg/min administered as 10 min infusion; type: toxicity, organism-based, Heart left ventricle; details: in vivo, iv
Sus scrofa [2] = experiment: Cardiotoxicity in iv dosed Sus scrofa (pig) assessed as effect on maximum rate of rise of left ventricular pressure administered as infusion; type: toxicity, organism-based, Heart left ventricle; details: in vivo
Sus scrofa [3] = experiment: Cardiotoxicity in Sus scrofa (pig) assessed as increase in maximum rate of rise of left ventricular pressure at 2.5 to 25 ug/kg/min administered as 10 min infusion; type: toxicity, organism-based, Heart left ventricle; details: in vivo, iv
Sus scrofa [4] = experiment: Cardiotonic activity in iv dosed Sus scrofa (pig) assessed as change in left ventricular filling pressure administered as infusion; type: functional, Heart left ventricle
Sus scrofa [5] = experiment: Cardiotonic activity in iv dosed Sus scrofa (pig) assessed as change in heart rate administered as infusion; type: functional
Sus scrofa [6] = experiment: Cardiotonic activity in iv dosed Sus scrofa (pig) assessed as change in left ventricular systolic pressure administered as infusion; type: functional, Heart left ventricle

SMILES	Activity (Sus scrofa [1]) [%]	Activity (Sus scrofa [2]) [%]	Activity (Sus scrofa [3]) [%]	Activity (Sus scrofa [4]) [%]	Activity (Sus scrofa [5]) [%]	Activity (Sus scrofa [6]) [%]
COC(=O)C1=C(C)NC(C)=C(C(=O)OCC(C)C)C1c1ccccc1[N+](=O)[O-] (stereo unspecified) [NISOLDIPINE]	45					
COc1ccc(-c2nc3ccc(C4=NNC(=O)CC4C)cc3[nH]2)cc1 (stereo unspecified) [PIMOBENDAN]		10	85	-20	10	-5
